Source: ChEMBL document CHEMBL2311254, “Tuning the preference of thiodigalactoside- and lactosamine-based ligands to galectin-3 over galectin-1” (J Med Chem, 2013)

Legend:
Homo sapiens = organism: Homo sapiens; assay: Selectivity ratio of Kd for galectin-1 (unknown origin) to Kd for galectin-3 (unknown origin)
Galectin-3 [1] = target: T1, Galectin-3 (Homo sapiens, UniProt P17931); assay: Binding affinity to galectin-3 (unknown origin) by fluorescence polarization assay
Galectin-3 [2] = target: T1, Galectin-3; assay: Ratio of LacNAc-beta-OMe Kd to compound Kd for galectin-3 (unknown origin)
Galectin-1 [3] = target: T2, Galectin-1 (Homo sapiens, UniProt P09382); assay: Ratio of LacNAc-beta-OMe Kd to compound Kd for galectin-1 (unknown origin)
Galectin-1 [4] = target: T2, Galectin-1; assay: Binding affinity to galectin-1 (unknown origin) by fluorescence polarization assay
Galectin-3 [5] = target: T1, Galectin-3; assay: Ratio of Thiodigalactoside Kd to compound Kd for galectin-3 (unknown origin)
Galectin-1 [6] = target: T2, Galectin-1; assay: Ratio of Thiodigalactoside Kd to compound Kd for galectin-1 (unknown origin)
Galectin-3 [7] = target: T1, Galectin-3; assay: Binding affinity to galectin-3 (unknown origin)

T2 sequence (P09382 whole entry): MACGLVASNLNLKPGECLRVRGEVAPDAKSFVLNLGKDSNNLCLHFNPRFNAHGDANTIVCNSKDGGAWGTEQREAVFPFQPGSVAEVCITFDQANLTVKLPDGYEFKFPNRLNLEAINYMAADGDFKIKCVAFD
T1 sequence (P17931 whole entry): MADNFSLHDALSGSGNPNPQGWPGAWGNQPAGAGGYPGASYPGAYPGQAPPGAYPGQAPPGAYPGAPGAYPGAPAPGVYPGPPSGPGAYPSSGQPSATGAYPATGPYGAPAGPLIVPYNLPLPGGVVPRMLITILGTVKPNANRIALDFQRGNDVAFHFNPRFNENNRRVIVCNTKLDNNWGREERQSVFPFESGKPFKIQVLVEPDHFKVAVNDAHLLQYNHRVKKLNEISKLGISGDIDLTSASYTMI

Compound	Selectivity ratio (Homo sapiens)	Kd (Galectin-3 [1]) [nM]	Ratio (Galectin-3 [2])	Ratio (Galectin-1 [3])	Kd (Galectin-1 [4]) [nM]	Ratio (Galectin-3 [5])	Ratio (Galectin-1 [6])	Activity (Galectin-3 [7]) [µM]
CO[C@@H]1O[C@H](CO)[C@@H](O[C@@H]2O[C@H](CO)[C@H](O)[C@H](O)[C@H]2O)[C@H](O)[C@H]1NC(C)=O	1	69000						
[N-]=[N+]=NCCCO[C@@H]1O[C@H](CO)[C@@H](O[C@@H]2O[C@H](CO)[C@H](O)[C@H](OCc3ccc(Oc4ccccc4)cc3)[C@H]2O)[C@H](O)[C@H]1NC(=O)c1ccccc1	22	8100	8.5	0.4	180000			
[N-]=[N+]=NCCCO[C@@H]1O[C@H](CO)[C@@H](O[C@@H]2O[C@H](CO)[C@H](O)[C@H](n3cc(-c4ccc(Oc5ccccc5)cc4)nn3)[C@H]2O)[C@H](O)[C@H]1NC(=O)c1ccccc1	2.4	2800	25	10	6700			
OC[C@H]1O[C@@H](S[C@@H]2O[C@H](CO)[C@H](O)[C@H](O)[C@H]2O)[C@H](O)[C@@H](O)[C@H]1O								43
[N-]=[N+]=NCCCO[C@@H]1O[C@H](CO)[C@@H](O[C@@H]2O[C@H](CO)[C@H](O)[C@H](n3cc(-c4ccc(Oc5ccccc5)cc4)nn3)[C@H]2O)[C@H](O)[C@H]1N1C(=O)c2ccccc2C1=O	13	2200	31	2.5	28000			
[N-]=[N+]=NCCCO[C@@H]1O[C@H](CO)[C@@H](O[C@@H]2O[C@H](CO)[C@H](O)[C@H](OCc3ccc(Oc4ccccc4)cc3)[C@H]2O)[C@H](O)[C@H]1N1C(=O)c2ccccc2C1=O	230	1200	58	0.3	280000			

Results, then the molecule that gave them:

Selectivity ratio (Homo sapiens)	Kd (Galectin-3 [1]) [nM]	Ratio (Galectin-3 [2])	Ratio (Galectin-1 [3])	Kd (Galectin-1 [4]) [nM]	Ratio (Galectin-3 [5])	Ratio (Galectin-1 [6])	Activity (Galectin-3 [7]) [µM]	Compound
0.6	22			13	1950	1850		OC[C@H]1O[C@@H](S[C@@H]2O[C@H](CO)[C@H](O)[C@H](n3cc(-c4cccc(O)c4)nn3)[C@H]2O)[C@H](O)[C@@H](n2cc(-c3cccc(O)c3)nn2)[C@H]1O
1	44			49	980	490		OC[C@H]1O[C@@H](S[C@@H]2O[C@H](CO)[C@H](O)[C@H](n3cc(-c4ccccc4)nn3)[C@H]2O)[C@H](O)[C@@H](n2cc(-c3ccccc3)nn2)[C@H]1O
230	360			84000	120	0.3		OC[C@H]1O[C@@H](S[C@@H]2O[C@H](CO)[C@H](O)[C@H](n3cc(-c4ccc(Oc5ccccc5)cc4)nn3)[C@H]2O)[C@H](O)[C@@H](n2cc(-c3ccc(Oc4ccccc4)cc3)nn2)[C@H]1O
